Measured values taken from the supplement of paper PMC10307832.

Columns and labels:
Test in all cases: relative viability (nuclei count vs DMSO), 5 days (fraction); higher = more cells survive
[1] = compound: C1CSC2=C(C(=O)N1)SC3=C2C=C(C=C3)O [kb NB 142-70] + CC(C)C[C@H](NC(=O)[C@H](Cc1ccccc1)NC(=O)c1cnccn1)B(O)O [Bortezomib] (partner 0.002 µM)
How it was run: (§1)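 A single step with final 0.05% Triton X-100, 1% formaldehyde and 1 ug/ml Hoechst fixed the cells and stained nuclei 5 days after treatment. Lung cancer cell lines in 1536-well plates had been treated by pin tool the day after seeding with one drug alone or a fixed anchor-drug dose plus five library-drug doses (not always all listed) in √10 steps, and nuclei were counted on 4× images. Relative viability is the ratio of nuclei in treated wells to nuclei in vehicle wells, taken as the median of duplicate plates.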

kb NB 142-70 + Lapatinib = compound: C1CSC2=C(C(=O)N1)SC3=C2C=C(C=C3)O [kb NB 142-70] + CS(=O)(=O)CCNCc1ccc(-c2ccc3ncnc(Nc4ccc(OCc5cccc(F)c5)c(Cl)c4)c3c2)o1 [Lapatinib] (partner 2 µM)
How it was run: as §1

[2] = compound: C1CSC2=C(C(=O)N1)SC3=C2C=C(C=C3)O [kb NB 142-70] + Cc1cc(Nc2cc(N3CCN(C)CC3)nc(Sc3ccc(NC(=O)C4CC4)cc3)n2)n[nH]1 [Tozasertib] (partner 0.1 µM)
How it was run: as §1

kb NB 142-70 + AZD7762 = compound: C1CSC2=C(C(=O)N1)SC3=C2C=C(C=C3)O [kb NB 142-70] + NC(=O)Nc1cc(-c2cccc(F)c2)sc1C(=O)N[C@H]1CCCNC1 [AZD7762] (partner 0.2 µM)
How it was run: as §1

kb NB 142-70 + Olaparib = compound: C1CSC2=C(C(=O)N1)SC3=C2C=C(C=C3)O [kb NB 142-70] + O=C(c1cc(Cc2n[nH]c(=O)c3ccccc23)ccc1F)N1CCN(C(=O)C2CC2)CC1 [Olaparib] (partner 8 µM)
How it was run: as §1

[3] = compound: NCC(=O)Nc1ccc(-n2nc(C(F)(F)F)cc2-c2ccc3c(ccc4ccccc43)c2)cc1 + C[C@@H](Oc1cc(-c2cnn(C3CCNCC3)c2)cnc1N)c1c(Cl)ccc(F)c1Cl [Crizotinib] (partner 1 µM)
How it was run: as §1

CAL-12T
relative viability ([1]; first compound 0.1 µM): 1.01 | relative viability ([1]; first compound 1 µM): 1.04 | relative viability ([1]; first compound 3.162 µM): 0.819 | relative viability (kb NB 142-70 + Lapatinib; first compound 0.1 µM): 0.673 | relative viability (kb NB 142-70 + Lapatinib; first compound 1 µM): 0.673 | relative viability (kb NB 142-70 + Lapatinib; first compound 3.162 µM): 0.496 | relative viability ([2]; first compound 0.1 µM): 0.36 | relative viability ([2]; first compound 1 µM): 0.395 | relative viability ([2]; first compound 3.162 µM): 0.267 | relative viability (kb NB 142-70 + AZD7762; first compound 0.1 µM): 0.548 | relative viability (kb NB 142-70 + AZD7762; first compound 1 µM): 0.718 | relative viability (kb NB 142-70 + AZD7762; first compound 3.162 µM): 0.704 | relative viability (kb NB 142-70 + Olaparib; first compound 0.1 µM): 0.7 | relative viability (kb NB 142-70 + Olaparib; first compound 1 µM): 0.691 | relative viability (kb NB 142-70 + Olaparib; first compound 3.162 µM): 0.677 | relative viability ([3]; first compound 0.02 µM): 0.682 | relative viability ([3]; first compound 0.06325 µM): 0.73 | relative viability ([3]; first compound 0.2 µM): 0.591 | relative viability ([3]; first compound 0.6325 µM): 0.716 | relative viability ([3]; first compound 2 µM): 0.722

RERF-LC-KJ
relative viability ([1]; first compound 0.1 µM): 1.18 | relative viability ([1]; first compound 1 µM): 1.29 | relative viability ([1]; first compound 3.162 µM): 0.946 | relative viability (kb NB 142-70 + Lapatinib; first compound 0.1 µM): 0.956 | relative viability (kb NB 142-70 + Lapatinib; first compound 1 µM): 0.88 | relative viability (kb NB 142-70 + Lapatinib; first compound 3.162 µM): 0.942 | relative viability ([2]; first compound 0.1 µM): 0.445 | relative viability ([2]; first compound 1 µM): 0.486 | relative viability ([2]; first compound 3.162 µM): 0.445 | relative viability (kb NB 142-70 + AZD7762; first compound 0.1 µM): 1.02 | relative viability (kb NB 142-70 + AZD7762; first compound 1 µM): 0.985 | relative viability (kb NB 142-70 + AZD7762; first compound 3.162 µM): 1.04 | relative viability (kb NB 142-70 + Olaparib; first compound 0.1 µM): 1.03 | relative viability (kb NB 142-70 + Olaparib; first compound 1 µM): 1.01 | relative viability (kb NB 142-70 + Olaparib; first compound 3.162 µM): 0.675 | relative viability ([3]; first compound 0.02 µM): 0.867 | relative viability ([3]; first compound 0.06325 µM): 0.845 | relative viability ([3]; first compound 0.2 µM): 0.847 | relative viability ([3]; first compound 0.6325 µM): 0.791 | relative viability ([3]; first compound 2 µM): 0.809

BEN
relative viability ([1]; first compound 0.1 µM): 0.942 | relative viability ([1]; first compound 1 µM): 0.669 | relative viability ([1]; first compound 3.162 µM): 0.418 | relative viability (kb NB 142-70 + Lapatinib; first compound 0.1 µM): 0.731 | relative viability (kb NB 142-70 + Lapatinib; first compound 1 µM): 0.66 | relative viability (kb NB 142-70 + Lapatinib; first compound 3.162 µM): 0.519 | relative viability ([2]; first compound 0.1 µM): 0.459 | relative viability ([2]; first compound 1 µM): 0.455 | relative viability ([2]; first compound 3.162 µM): 0.437 | relative viability (kb NB 142-70 + AZD7762; first compound 0.1 µM): 0.727 | relative viability (kb NB 142-70 + AZD7762; first compound 1 µM): 0.623 | relative viability (kb NB 142-70 + AZD7762; first compound 3.162 µM): 0.531 | relative viability (kb NB 142-70 + Olaparib; first compound 0.1 µM): 1.09 | relative viability (kb NB 142-70 + Olaparib; first compound 1 µM): 1.21 | relative viability (kb NB 142-70 + Olaparib; first compound 3.162 µM): 1.01 | relative viability ([3]; first compound 0.02 µM): 0.923 | relative viability ([3]; first compound 0.06325 µM): 0.997 | relative viability ([3]; first compound 0.2 µM): 0.837 | relative viability ([3]; first compound 0.6325 µM): 0.965 | relative viability ([3]; first compound 2 µM): 0.9

EMC-BAC-2
relative viability ([1]; first compound 0.1 µM): 1.08 | relative viability ([1]; first compound 1 µM): 1.07 | relative viability ([1]; first compound 3.162 µM): 0.812 | relative viability (kb NB 142-70 + Lapatinib; first compound 0.1 µM): 0.942 | relative viability (kb NB 142-70 + Lapatinib; first compound 1 µM): 0.898 | relative viability (kb NB 142-70 + Lapatinib; first compound 3.162 µM): 0.743 | relative viability ([2]; first compound 0.1 µM): 0.303 | relative viability ([2]; first compound 1 µM): 0.302 | relative viability ([2]; first compound 3.162 µM): 0.261 | relative viability (kb NB 142-70 + AZD7762; first compound 0.1 µM): 1.13 | relative viability (kb NB 142-70 + AZD7762; first compound 1 µM): 1.15 | relative viability (kb NB 142-70 + AZD7762; first compound 3.162 µM): 0.731 | relative viability (kb NB 142-70 + Olaparib; first compound 0.1 µM): 0.531 | relative viability (kb NB 142-70 + Olaparib; first compound 1 µM): 0.505 | relative viability (kb NB 142-70 + Olaparib; first compound 3.162 µM): 0.384 | relative viability ([3]; first compound 0.02 µM): 0.737 | relative viability ([3]; first compound 0.06325 µM): 0.763 | relative viability ([3]; first compound 0.2 µM): 0.797 | relative viability ([3]; first compound 0.6325 µM): 0.712 | relative viability ([3]; first compound 2 µM): 0.765
